We go through 19 compounds from patent EP2292587A1, “PHARMACEUTICAL COMPOSITION FOR INHIBITING THE TRANSCRIPTION FACTOR INDUCIBLE BY HYPOXIA, MODULATORS OF PATHOLOGICAL PROCESSES OF ANGIOGENESIS, ONCOGENESIS, INFLAMMATION, APOPTOSIS, AND CELLULAR THERAPY” (Fundacion De La Comunidad Valenciana Centro De …, priority 2008, dated 2009).

One assay deals with HIF. The assay can be described thus: luciferase cell assay based on the HIF response elements (HRE), HeLa 9XHRE-LUC. On the set-up: species or system human. The note with it: Homo sapiens; cell assay based on the HIF response elements (Example 1), HeLa 9XHRE-LUC; read-out: IC50 HRE. The source says:
In order to identify direct inhibitors of the activity of HIF, a stable recombinant line was first constructed from the cervical tumor line, known in scientific literature as HeLa, which contained the deoxyribonucleic acid (DNA) sequences of the region located between positions -985 and -951 of the human vascular endothelial growth factor (hVEGF), repeated nine times (9X) and fused to the luciferase reporter gene (LUC). This plasmid, provided by Dr. Manuel Ortiz de Landazuri from the Hospital de La Princesa of Madrid, called 9XHRE-LUC, was prepared using a commercial kit (Endofree Maxi-Prep; Qiagen, Inc., Valencia, CA). The transfections were performed with FuGene6 (Roche, cat.1814443) according to the manufacturer's instructions, the µg DNA: µg FuGene ratio was 1:3. The transfected cell lines were generated by cotransfection with the vector pCMV-Hygrom which expressed a hygromycin resistance gene in mammalian cells, allowing the selection of the transfected clones. After 48 hours, the growth medium was substituted with fresh medium containing 100 µg/ml hygromycin (Sigma), the clones resistant to the antibiotic were collected and analyzed by means of RT-PCR to select the clone with the desired construct. Routinely, the HeLa 9XHRE-LUC cell line was maintained in exponential growth by means of performing subcultures in DMEM (Invitrogen-Life Technologies, Inc., Carlsbad, CA), supplemented with 10% inactivated fetal bovine serum (Whittacker Bioproducts), penicillin (50 IU/ml), streptomycin (50 µg/ml) (Invitrogen-Life Technologies, Inc., Carlsbad, CA). The cells were cultured at 37°C with a humidified atmosphere containing 5% CO2 and 300 nM Desferoxamine (DFX; Sigma St. Louis, MO).
The compounds of the Collection of the CIPF, coming from a selection of commercial collections of Sigma-Aldrich, were solubilized in DMSO at a final concentration of 5 mM and preserved at -80°C. The concentration of these compounds in the luciferase assay was 1 mcM finally in the well of the multi-well plate in which the reaction was carried out. The luciferase assays were performed in white 96-well plates (Valtecknova ref. 3917), using the kit Bright-Glo™ Luciferase Assay System (Promega, Inc., Madison, WI) following the instructions supplied by the manufacturer.
According to the methodology of the cell assay based on the HIF response elements (Example 1), the intermediate compounds of the synthesis and several synthesized analogs were tested to obtain the SAR of FM19G11.
Usually IC50 stands for the concentration that inhibits the measured activity by half. As to `COC(=O)c1cccc(NC(=O)c2ccc([N+](=O)[O-])cc2[N+](=O)[O-])c1` [Compound 2, methyl 3-((2,4-dinitro)benzamido)benzoate], the IC50 was over 1 µM.

For `O=C(O)c1cccc(NC(=O)c2ccc([N+](=O)[O-])cc2[N+](=O)[O-])c1` [Compound 3, 3-((2,4-dinitro)benzamido)benzoic acid], the IC50 is over 1 µM.

In the case of `COC(=O)c1cccc(NC(=O)c2ccc(C(F)(F)F)cc2[N+](=O)[O-])c1` [Compound 5, methyl 3-(2-nitro-4-(trifluoromethyl)benzamido)benzoate], the concentration for half-maximal inhibition (IC50) is over 1 µM.

On to `O=C(O)c1cccc(NC(=O)c2ccc(C(F)(F)F)cc2[N+](=O)[O-])c1` [Compound 6, 3-(2-nitro-4-(trifluoromethyl)benzamido)benzoic acid], for which the IC50 is over 1 µM.

As for `Cc1ccc(C(=O)COC(=O)c2cccc(NC(=O)c3ccc(C(F)(F)F)cc3[N+](=O)[O-])c2)cc1` [Compound 7, 2-oxo-2-(p-tolyl)ethyl 3-(2-nitro-4-(trifluoromethyl)benzamido)benzoate], the IC50 was determined as 0.084 µM.

Take `COC(=O)c1cccc(NC(=O)c2ccc([N+](=O)[O-])cc2C(F)(F)F)c1` [Compound 8, methyl 3-(4-nitro-2-(trifluoromethyl)benzamido)benzoate]: the IC50 is over 1 µM.

Turning to `O=C(O)c1cccc(NC(=O)c2ccc([N+](=O)[O-])cc2C(F)(F)F)c1` [Compound 9, 3-(4-nitro-2-(trifluoromethyl)benzamido)benzoic acid], the IC50 was over 1 µM.

On to `Cc1ccc(C(=O)COC(=O)c2cccc(NC(=O)c3ccc([N+](=O)[O-])cc3C(F)(F)F)c2)cc1` [Compound 10, 2-oxo-2-(p-tolyl)ethyl 3-(4-nitro-2-(trifluoromethyl)benzamido)benzoate], for which the IC50 stood at 0.14 µM.

Regarding `O=C(O)c1cccc(NC(=O)c2ccc(C(F)(F)F)cc2C(F)(F)F)c1` [Compound 12, 3-(2,4-bis-(trifluoromethyl)benzamido)benzoic acid], the IC50 was over 1 µM.

For `Cc1ccc(C(=O)COC(=O)c2cccc(NC(=O)c3ccc(C(F)(F)F)cc3C(F)(F)F)c2)cc1` [Compound 13, 2-oxo-2-(p-tolyl)ethyl 3-(2,4-bis(trifluoromethyl)benzamido)benzoate], the IC50 was determined as 0.3 µM.

For `Cc1ccc(C(=O)COC(=O)c2cccc(NC(=O)c3ccccc3)c2)cc1` [Compound 16, 2-oxo-2-(p-tolyl)ethyl 3-(benzamido)benzoate], the IC50 is over 1 µM.

Consider `O=C(COC(=O)c1cccc(NC(=O)c2ccc([N+](=O)[O-])cc2[N+](=O)[O-])c1)c1ccccc1` [Compound 19, 2-phenyl-2-oxoethyl 3-(2,4-(dinitro)benzamido)benzoate], for which the IC50 was over 1 µM.

In the case of `Cc1ccc(C(=O)COC(=O)c2cccc(NC(=O)c3ccc([N+](=O)[O-])cc3)c2)cc1` [Compound 22, 2-oxo-2-(p-tolyl)ethyl 3-(4-nitrobenzamido)benzoate], the IC50 turned out to be 2.5 µM.

In the case of `COC(=O)c1cccc(NC(=O)c2ccccc2[N+](=O)[O-])c1` [Compound 23, methyl 3-(2-nitrobenzamido)benzoate], the IC50 is over 1 µM.

As to `O=C(O)c1cccc(NC(=O)c2ccccc2[N+](=O)[O-])c1` [Compound 24, 3-(2-nitrobenzamido)benzoic acid], the IC50 came to 1.4 µM.

As to `Cc1ccc(C(=O)COC(=O)c2cccc(NC(=O)c3ccccc3[N+](=O)[O-])c2)cc1` [Compound 25, 2-oxo-2-(p-tolyl)ethyl 3-(2-nitrobenzamido)benzoate], the IC50 is 2.8 µM.

For `O=C(O)c1ccc(C(=O)COC(=O)c2cccc(NC(=O)c3ccc([N+](=O)[O-])cc3[N+](=O)[O-])c2)cc1` [Compound 29, 4-(2-(3-(2,4-dinitrobenzamido)benzoyloxy)-acetyl)benzoic acid], the IC50 amounted to 1.4 µM.

Staying with this assay, now noted: cell assay based on the HIF response elements (Example 1), HeLa 9XHRE-LUC; read-out: IC50 HRE.
In the case of `O=C(COC(=O)c1cccc(NC(=O)c2ccc([N+](=O)[O-])cc2[N+](=O)[O-])c1)c1ccc(C(F)(F)F)cc1` [Compound 17, 2-oxo-2-(4-trifluoromethyl) ethyl 3-(2,4-(dinitro)benzamido)benzoate], the IC50 is 1 µM.

On to `O=C(COC(=O)c1cccc(NC(=O)c2ccc([N+](=O)[O-])cc2[N+](=O)[O-])c1)c1ccc(O)cc1` [Compound 26, 2-(4-hydroxyphenyl)-2-oxoethyl 3-(2,4-(dinitro)benzamido)benzoate], for which the IC50 was found to be 0.36 µM.
